{"source": "paper PMC10349806", "about": "(Nature Communications, 2023)", "key": {"[1]": {"molecular_target": "T1, PfCRT variant E299A (Plasmodium falciparum, UniProt Q9N623, A220S/E299A/I356T/K76T/M74I/N326S/N75E/Q271E/R371I)", "T1 sequence (Q9N623 1-424 M74I/N75E/K76T/A220S/Q271E/E299A/N326S/I356T/R371I)": "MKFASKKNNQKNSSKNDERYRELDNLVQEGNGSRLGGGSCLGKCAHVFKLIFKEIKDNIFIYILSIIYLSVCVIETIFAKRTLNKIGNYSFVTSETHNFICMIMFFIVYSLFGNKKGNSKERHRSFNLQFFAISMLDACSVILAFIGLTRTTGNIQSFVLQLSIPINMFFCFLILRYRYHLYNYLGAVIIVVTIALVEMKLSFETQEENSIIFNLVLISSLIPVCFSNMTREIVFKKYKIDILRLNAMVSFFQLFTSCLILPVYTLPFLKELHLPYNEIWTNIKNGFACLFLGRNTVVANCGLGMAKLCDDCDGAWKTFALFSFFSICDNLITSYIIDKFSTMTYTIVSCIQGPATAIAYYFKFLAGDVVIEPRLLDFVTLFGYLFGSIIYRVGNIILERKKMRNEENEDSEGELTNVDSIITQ", "test": "CQ uptake assay, oocytes expressing E299A", "type": "cell-based", "method": "(§1) Site-directed mutagenesis of PfCRT^Dd2 was performed as described using the megaprimer method with overlap extension[21],[54]. The primer pairs used are listed in Supplementary Table 6. Please note that a codon-optimized and oocyte-adapted version of PfCRT^Dd2 was used[22] (Supplementary Fig. 16). The resulting DNA fragment was cloned into the SP64T expression vector and verified by sequencing.\n(§2) Oocytes were obtained as described previously. Briefly, adult (>2 years old) female X. laevis frogs (NASCO) were anesthetized in a cooled solution of ethyl 3-amino benzoate methanesulfonate (0.1%, w/v), followed by a surgical removal of parts of the ovary. The ovary lobes were carefully dissected and small pieces of oocytes were incubated in Ca^2+-free ND96 buffer (96 mM NaCl, 2 mM KCl, 1 mM MgCl2 buffered with 5 mM HEPES/NaOH, pH 7.5) supplemented with collagenase D (0.1%, w/v; Roche), BSA (0.5%, w/v), and 9 mm Na2HPO4 at 18 °C for 14-16 h while gentle shaking. After incubation, the oocytes were carefully washed several times with ND96 buffer (96 mM NaCl, 2 mM KCl, 1.8 mM CaCl2, 1 mM MgCl2 buffered with 5 mM HEPES/NaOH, pH 7.5) supplemented with 100 mg l^−1 gentamycin). Defolliculated and healthy-looking stage V-VI oocytes were manually selected for RNA microinjection. The RNA was generated as following: The codon-optimized sequences of PfCRT variants were cloned into the pSP64T expression vector. After vector linearization using the restriction endonucleases BamHI or SalI (New England Biolabs), transcription was performed using the in vitro SP6 mMessage mMachine Kit (Ambion)[34]. The obtained RNA was kept at −80 °C and diluted with nuclease-free water to a concentration of 0.6 μg μl^−1. Precision-bore glass capillary tubes (3.5-inch glass capillaries; Drummond Scientific Co.) were pulled on a vertical puller (P-87 Flaming/Brown micropipette puller, Sutter Instrument Co.), graduated, and placed on a microinjector (Nanoject II Auto-Nanoliter Injector, Drummond Scientific Co.). 50 nl of nuclease-free water alone (control oocytes) or 50 nl of 0.6 μg μl^−1 RNA were injected under stereomicroscopic control. Injected oocytes were incubated for 46–72 h at 18 °C with twice-daily buffer changes before usage in experiments.\nDrug uptake assays were performed as described previously[21],[22],[24],[34]. […] The direction of radio-labeled drug transport is here from the mostly acidic extracellular solution (pH 4.5 or 6.0, as indicated) into the oocyte cytosol (pH ∼ 7.2), which corresponds to the efflux of drug from the acidic digestive vacuole (pH 5.2) into the parasite cytoplasm (pH 7.2). The topology of PfCRT in the oolemma is such that both the N- and C-terminus face the extracellular milieu[3],[22]. In the parasite, the N- and C-terminus face the lumen of the digestive vacuole. CQ uptake kinetics were performed by incubating oocytes in ND96 buffer adjusted to a pH of 4.5, 5.0, 5.5, or 6.0 and supplemented with 50 nM [^3H]CQ and one of 7 different CQ concentrations (10 µM, 50 µM, 100 µM, 200 µM, 300 µM, 400 µM, 500 µM CQ). The reaction was stopped at the 60 min time point, which is in the linear uptake range[22],[34] (Supplementary Fig. 17). […] The radioactivity of each sample was measured using a liquid scintillation analyzer Tri-Carb 4910 TR (PerkinElmer). Oocytes that were injected with water instead of RNA were analyzed in parallel, representing the uptake of a drug by diffusion and/or endogenous permeation pathways. […]"}, "[2]": {"test_system": "PfCRT variant E207G", "test": "CQ uptake assay, oocytes expressing E207G", "type": "cell-based, Plasmodium falciparum", "method": "as §1, §2\n(§3) Drug uptake assays were performed as described previously[21],[22],[24],[34]. […] The direction of radio-labeled drug transport is here from the mostly acidic extracellular solution (pH 4.5 or 6.0, as indicated) into the oocyte cytosol (pH ∼ 7.2), which corresponds to the efflux of drug from the acidic digestive vacuole (pH 5.2) into the parasite cytoplasm (pH 7.2). The topology of PfCRT in the oolemma is such that both the N- and C-terminus face the extracellular milieu[3],[22]. In the parasite, the N- and C-terminus face the lumen of the digestive vacuole. CQ uptake kinetics were performed by incubating oocytes in ND96 buffer adjusted to a pH of 4.5, 5.0, 5.5, or 6.0 and supplemented with 50 nM [^3H]CQ and one of 7 different CQ concentrations (10 µM, 50 µM, 100 µM, 200 µM, 300 µM, 400 µM, 500 µM CQ). The reaction was stopped at the 60 min time point, which is in the linear uptake range[22],[34] (Supplementary Fig. 17). For determination of the amount of drug uptake for each oocyte, the reaction medium was removed and the oocytes were washed three times with 2 ml of ice-cold ND96 buffer. Each oocyte was individually transferred to a scintillation vial containing 5% sodium dodecyl sulfate (200 μl) for lysis. The radioactivity of each sample was measured using a liquid scintillation analyzer Tri-Carb 4910 TR (PerkinElmer). Oocytes that were injected with water instead of RNA were analyzed in parallel, representing the uptake of a drug by diffusion and/or endogenous permeation pathways. The resulting value represents the “background“ level of drug accumulation in oocytes (in-depth discussion in[22]). […]"}, "[3]": {"test_system": "PfCRT variant E207M", "test": "CQ uptake assay, oocytes expressing E207M", "type": "cell-based, Plasmodium falciparum", "method": "as §1, §2, §3"}, "[4]": {"test_system": "PfCRT variant E207D", "test": "CQ uptake assay, oocytes expressing E207D", "type": "cell-based, Plasmodium falciparum", "method": "as §1, §2, §3"}, "[5]": {"test_system": "PfCRT variant E207V", "test": "CQ uptake assay, oocytes expressing E207V", "type": "cell-based, Plasmodium falciparum", "method": "as §1, §2, §3"}, "[6]": {"settings": "E299A, 50 µM CQ, 1 h, mean ± SEM"}, "[7]": {"settings": "E207G, 50 µM CQ, 1 h, mean ± SEM"}, "[8]": {"settings": "pH 4.5, individual replicates, Fig 6b"}, "[9]": {"settings": "pH 6.0, individual replicates, Fig 6b"}, "[10]": {"settings": "ratio of activity pH 4.5 / pH 6.0"}, "[11]": {"settings": "E207M, 50 µM CQ, 1 h, mean ± SEM"}, "[12]": {"settings": "E207D, 50 µM CQ, 1 h, mean ± SEM"}, "[13]": {"settings": "E207V, 50 µM CQ, 1 h, mean ± SEM"}}, "note": "“And” between values parts separate entries of the source, which are not always exact repeats. Identical values can stand only once."}
{"molecule": "CCN(CC)CCCC(C)Nc1ccnc2cc(Cl)ccc12", "note": "(centres unmarked) [CQ, chloroquine]", "values": [{"measurement": "Activity at pH 4.5", "setting": "[1]; [6]", "result": "1.87 ± 0.19", "unit": "pmol h-1 oocyte-1"}, {"measurement": "Activity at pH 6.0", "setting": "[1]; [6]", "result": "3.32 ± 0.54", "unit": "pmol h-1 oocyte-1"}, {"measurement": "R-value", "setting": "[1]; E299A, CQ transport at pH 4.5 / pH 6.0", "result": "0.60 ± 0.12"}, {"measurement": "E299A transport activity pH 4.5", "setting": "[1]; pH 4.5, single replicates, Fig 1d left", "result": "2.28 pmol oocyte-1 h-1 and 1.48 pmol oocyte-1 h-1 and 1.84 pmol oocyte-1 h-1"}, {"measurement": "E299A transport activity pH 6.0", "setting": "[1]; pH 6.0, single replicates, Fig 1d left", "result": "2.59 pmol oocyte-1 h-1 and 2.74 pmol oocyte-1 h-1 and 4.64 pmol oocyte-1 h-1"}, {"measurement": "Activity at pH 4.5", "setting": "[2]; [7]", "result": "2.26 ± 0.46", "unit": "pmol h-1 oocyte-1"}, {"measurement": "Activity at pH 6.0", "setting": "[2]; [7]", "result": "2.55 ± 0.15", "unit": "pmol h-1 oocyte-1"}, {"measurement": "R-value", "setting": "[2]; E207G, CQ transport at pH 4.5 / pH 6.0", "result": "0.88 ± 0.06"}, {"measurement": "E207G transport activity pH 4.5", "setting": "[2]; [8]", "result": "2.31 pmol oocyte-1 h-1 and 2.79 pmol oocyte-1 h-1 and 1.67 pmol oocyte-1 h-1"}, {"measurement": "E207G transport activity pH 6.0", "setting": "[2]; [9]", "result": "2.70 pmol oocyte-1 h-1 and 2.76 pmol oocyte-1 h-1 and 2.19 pmol oocyte-1 h-1"}, {"measurement": "E207G R-value", "setting": "[2]; [10]", "result": "0.86 and 1.01 and 0.76"}, {"measurement": "Activity at pH 4.5", "setting": "[3]; [11]", "result": "1.85 ± 0.27", "unit": "pmol h-1 oocyte-1"}, {"measurement": "Activity at pH 6.0", "setting": "[3]; [11]", "result": "2.24 ± 0.41", "unit": "pmol h-1 oocyte-1"}, {"measurement": "R-value", "setting": "[3]; E207M, CQ transport at pH 4.5 / pH 6.0", "result": "0.85 ± 0.02"}, {"measurement": "E207M transport activity pH 4.5", "setting": "[3]; [8]", "result": "1.39 pmol oocyte-1 h-1 and 1.26 pmol oocyte-1 h-1 and 2.26 pmol oocyte-1 h-1 and 2.48 pmol oocyte-1 h-1"}, {"measurement": "E207M transport activity pH 6.0", "setting": "[3]; [9]", "result": "1.61 pmol oocyte-1 h-1 and 1.40 pmol oocyte-1 h-1 and 2.48 pmol oocyte-1 h-1 and 3.48 pmol oocyte-1 h-1"}, {"measurement": "E207M R-value", "setting": "[3]; [10]", "result": "0.86 and 0.90 and 0.91 and 0.71"}, {"measurement": "Activity at pH 4.5", "setting": "[4]; [12]", "result": "1.82 ± 0.06", "unit": "pmol h-1 oocyte-1"}, {"measurement": "Activity at pH 6.0", "setting": "[4]; [12]", "result": "5.13 ± 0.37", "unit": "pmol h-1 oocyte-1"}, {"measurement": "R-value", "setting": "[4]; E207D, CQ transport at pH 4.5 / pH 6.0", "result": "0.36 ± 0.05"}, {"measurement": "E207D transport activity pH 4.5", "setting": "[4]; [8]", "result": "1.93 pmol oocyte-1 h-1 and 1.78 pmol oocyte-1 h-1 and 1.98 pmol oocyte-1 h-1 and 1.89 pmol oocyte-1 h-1 and 1.82 pmol oocyte-1 h-1 and 1.51 pmol oocyte-1 h-1"}, {"measurement": "E207D transport activity pH 6.0", "setting": "[4]; [9]", "result": "4.59 pmol oocyte-1 h-1 and 4.25 pmol oocyte-1 h-1 and 6.63 pmol oocyte-1 h-1 and 6.08 pmol oocyte-1 h-1 and 4.42 pmol oocyte-1 h-1 and 4.78 pmol oocyte-1 h-1"}, {"measurement": "E207D R-value", "setting": "[4]; [10]", "result": "0.42 and 0.30 and 0.31 and 0.41 and 0.32"}, {"measurement": "Activity at pH 4.5", "setting": "[5]; [13]", "result": "2.0 ± 0.13", "unit": "pmol h-1 oocyte-1"}, {"measurement": "Activity at pH 6.0", "setting": "[5]; [13]", "result": "2.09 ± 0.15", "unit": "pmol h-1 oocyte-1"}, {"measurement": "R-value", "setting": "[5]; E207V, CQ transport at pH 4.5 / pH 6.0", "result": "0.96 ± 0.02"}, {"measurement": "E207V transport activity pH 4.5", "setting": "[5]; [8]", "result": "2.33 pmol oocyte-1 h-1 and 1.85 pmol oocyte-1 h-1 and 1.83 pmol oocyte-1 h-1"}, {"measurement": "E207V transport activity pH 6.0", "setting": "[5]; [9]", "result": "2.45 pmol oocyte-1 h-1 and 1.85 pmol oocyte-1 h-1 and 1.96 pmol oocyte-1 h-1"}, {"measurement": "E207V R-value", "setting": "[5]; [10]", "result": "0.95 and 1.00 and 0.93"}]}
